Like-named read-outs stand apart in the source and are kept apart here. Some results are limits rather than exact numbers.

Series [1] relates to isolated guinea pig hearts. The series is described as follows: coronary flowthrough-increasing effectiveness on isolated guinea pig hearts according to Langendorff. The settings on record: Cavia porcellus, 25 μg/ml in tyrode solution, Langendorff heart; for activation at 25 µg/mL: read-out: flowthrough (coronary), percentage change in comparison with the initial value. On the procedure: After achieving the stationary state in the 30th minute, the hearts were each infused with 50 ml. tyrode solution with a content of test substance of, in each case, 25 μg./ml. Each test substance was tested on 3-6 hearts.
In each case, there was measured the inotropism, the flowthrough and the frequency, whereby the values given in Table I are average values of the percentage changes in comparison with the starting values.

A short description of series [2]: examination of acute toxicity, i.v., female NMRI-albino mice. The format is in vivo. The settings on record: mouse, in vivo, iv, mice, 24 hours; read-out: Evaluated LD50-range. On the procedure:
(§1) . The compounds were injected to at least 3 animals per dose. If no animal had yet been died following to the highest dose which was administered, no more doses of substances were tested. In case of doubt, the examination was repeated with at least 3 more animals applying the same dose.
(§2) The rate of death within 24 hours after administration was observed.
(§3) In table IX, the determined rates of death as well as the LD50 -ranges evaluated therefrom are shown.

Another series concerns female NMRI-albino mice. Described as above. The settings on record: within 24 hours; for Frequency of death with an intravenous dose of 100 mg/kg: 100 mg/kg i.v.; for Frequency of death with an intravenous dose of 200 mg/kg: 200 mg/kg i.v.; for Frequency of death with an intravenous dose of 50 mg/kg: 50 mg/kg i.v. It is filed as in vivo. On the procedure: as §1, §2, §3
In series [3] the test system is isolated rat aorta preparations. As to the kind of experiment: spasmolytic effectiveness on isolated rat aorta preparations (noradrenaline- and potassium chloride-induced contractions).
[4] abbreviates: read-out: frequency, percentage change in comparison with the initial value.
Where [5] appears, read: read-out: inotropism, percentage change in comparison with the initial value.
Setting [6] is: read-out: ED50 for spasmolytic action, Noradrenaline spasm (50% inhibition).
[7] abbreviates: read-out: ED50 for spasmolytic action, potassium chloride spasm (50% inhibition).

In general, LD50 refers to the dose expected to kill half of the subjects tested. With `Cn1c(=O)c2c(ncn2CCN[C@H]2CO[C@H]3[C@@H]2OC[C@@H]3O[N+](=O)[O-])n(C)c1=O` [Example 2, 5-(2-Theophyllin-7-ylethyl)-amino-5-desoxy-1.4;3.6-dianhydro-L-iditol 2-nitrate], the activation at 25 µg/mL in series [1] was found to be 34.7%. The figures for the inhibition at 25 µg/mL in series [1] (setting [4]) and in series [1] (setting [5]) were -3.5% and 4.6%, respectively. Further, the median lethal dose (LD50) at 24 h in series [2] was at least 200 mg/kg. The “Frequency of death with an intravenous dose of 100 mg/kg” value (shortened to “Frequency of death … of 100 mg/kg”) in the series on female NMRI-albino mice is listed as 0/3. The “Frequency of death with an intravenous dose of 200 mg/kg” value (“Frequency of death … of 200 mg/kg” for short) in the series with female NMRI-albino mice was 1/3. In addition, the results for the IC50 in series [3] (setting [6]) and in series [3] (setting [7]) were 4.2 µM and 30.5 µM, respectively.
As to `Cn1c(=O)c2c(ncn2CCCCN[C@H]2CO[C@H]3[C@@H]2OC[C@@H]3O[N+](=O)[O-])n(C)c1=O` [Example 3, 5-(4-Theophyllin-7-ylbutyl)-amino-5-desoxy-1.4;3.6-dianhydro-L-iditol 2-nitrate], the activation at 25 µg/mL in series [1] turned out to be 36.4%. For the same molecule, the inhibition at 25 µg/mL in series [1] (setting [4]) stood at 4.8%; in series [1] (setting [5]), 3.82%. For the same molecule, the 50% lethal dose (LD50) at 24 h in series [2] was above 200 mg/kg. Besides, the “Frequency of death … of 200 mg/kg” value in the series on female NMRI-albino mice is listed as 0/6. Also, the IC50 in series [3] (setting [6]) worked out at 2.6 µM; in series [3] (setting [7]) it was 3.6 µM.
Consider `Cn1c(=O)c2c(ncn2CCCCCN[C@H]2CO[C@H]3[C@@H]2OC[C@@H]3O[N+](=O)[O-])n(C)c1=O` [Example 4, 5-(5-Theophyllin-7-ylpentyl)-amino-5-desoxy-1.4;3.6-dianhydro-L-iditol 2-nitrate], for which the activation at 25 µg/mL in series [1] came to 55.7%. Moreover, the inhibition at 25 µg/mL in series [1] (setting [4]) amounted to 8.41%; in series [1] (setting [5]) it was 5.44%. In addition, the median lethal dose (LD50) at 24 h in series [2] fell in the range of 100 to 200 mg/kg. The “Frequency of death … of 100 mg/kg” value in the series with female NMRI-albino mice is 0/10. Besides, the “Frequency of death … of 200 mg/kg” value in the series with female NMRI-albino mice is 10/10. The IC50 in series [3] (setting [6]) came out at 2.7 µM; in series [3] (setting [7]), 3.8 µM.
Consider `Cn1c(=O)c2c(ncn2CCCCCCN[C@H]2CO[C@H]3[C@@H]2OC[C@@H]3O[N+](=O)[O-])n(C)c1=O` [Example 5, 5-(6-Theophyllin-7-ylhexyl)-amino-5-desoxy-1.4;3.6-dianhydro-L-iditol 2-nitrate], for which the activation at 25 µg/mL in series [1] worked out at 61.9%. For the same molecule, the inhibition at 25 µg/mL in series [1] (setting [4]) was 11.1%. The inhibition at 25 µg/mL in series [1] (setting [5]) worked out at 43.3%. Besides, the LD50 at 24 h in series [2] is at least 100 mg/kg. In the series with female NMRI-albino mice, the “Frequency of death with an intravenous dose of 50 mg/kg” value (“Frequency of death … of 50 mg/kg” below) was 0/10, the “Frequency of death … of 100 mg/kg” value is reported as 4/10 and the “Frequency of death … of 200 mg/kg” value was 10/10. Further, in series [3] (setting [6]), the IC50 came to 0.36 µM. Moreover, in series [3] (setting [7]), the IC50 was 2.4 µM.
In the case of `Cn1c(=O)c2c(ncn2CC(O)CN[C@H]2CO[C@H]3[C@@H]2OC[C@@H]3O[N+](=O)[O-])n(C)c1=O` (stereo partly drawn) [Example 6, 5-(2-Hydroxy-3-theophyllin-7-ylpropyl)-amino-5-desoxy-1.4;3.6-dianhydro-L-iditol 2-nitrate], the activation at 25 µg/mL in series [1] was 53.3%. The inhibition at 25 µg/mL was -3.39% in series [1] (setting [4]) and -4.5% in series [1] (setting [5]). The IC50 in series [3] (setting [6]) turned out to be 1.12 µM; in series [3] (setting [7]), 18 µM.
With `Cn1cnc2c1c(=O)n(CCCN[C@H]1CO[C@H]3[C@@H]1OC[C@@H]3O[N+](=O)[O-])c(=O)n2C` [Example 7c, 5-[3-(3,7-Dimethylxanthin-1-yl)-propylamino]-5-desoxy-1.4;3.6-dianhydro-L-iditol 2-nitrate], the activation at 25 µg/mL in series [1] worked out at 28.9%. In addition, in series [1] (setting [4]), the percent change from initial value at 25 µg/mL amounted to 0%. For the same molecule, the inhibition at 25 µg/mL in series [1] (setting [5]) was -10.5%. In series [2], the LD50 at 24 h was above 200 mg/kg. Besides, the “Frequency of death … of 200 mg/kg” value with female NMRI-albino mice was 0/6.
On to `CC(C)Cn1c(=O)n(C)c(=O)c2c1ncn2CCCN[C@H]1CO[C@H]2[C@@H]1OC[C@@H]2O[N+](=O)[O-]` [Example 8c, 5-[3-(3-Isobutyl-1-methylxanthin-7-yl)-propylamino]-5-desoxy-1.4;3.6-dianhydro-L-iditol 2-nitrate], for which the LD50 at 24 h in series [2] was 100 to 200 mg/kg. In the series with female NMRI-albino mice, the “Frequency of death … of 100 mg/kg” value is 0/3 and the “Frequency of death … of 200 mg/kg” value was 11/13.
On to `Cn1c(=O)c2c(ncn2CCCN[C@@H]2CO[C@H]3[C@@H]2OC[C@@H]3O[N+](=O)[O-])n(C)c1=O` [Example 10c, 5-(3-Theophyllin-7-ylpropyl)-amino-5-desoxy-1.4;3.6-dianhydro-D-glucitol 2-nitrate], for which the activation at 25 µg/mL in series [1] is 13%. Besides, the results for the inhibition at 25 µg/mL in series [1] (setting [4]) and in series [1] (setting [5]) were 5.6% and 6.4%, respectively. Also, the 50% lethal dose (LD50) at 24 h in series [2] is above 200 mg/kg. The “Frequency of death … of 200 mg/kg” value with female NMRI-albino mice is given as 0/6.
With `Cn1c(=O)c2c(ncn2CCCN[C@H]2CO[C@H]3[C@@H]2OC[C@H]3O[N+](=O)[O-])n(C)c1=O` [Example 11d, 2-(3-Theophyllin-7-ylpropyl)-amino-2-desoxy-1.4;3.6-dianhydro-D-glucitol 5-nitrate], the median lethal dose (LD50) at 24 h in series [2] is above 200 mg/kg. For the same molecule, in the series with female NMRI-albino mice, the “Frequency of death … of 200 mg/kg” value is listed as 0/6.
The like results for `Cn1c(=O)c2c(ncn2CCCN[C@@H]2CO[C@H]3[C@@H]2OC[C@H]3O[N+](=O)[O-])n(C)c1=O` [Example 12d, 5-(3-Theophyllin-7-ylpropyl)-amino-5-desoxy-1.4;3.6-dianhydro-D-mannitol 2-nitrate] were, in that order, above 200 mg/kg and 0/6.
As for `Nc1ncnc2c1ncn2CCN[C@H]1CO[C@H]2[C@@H]1OC[C@@H]2O[N+](=O)[O-]` [Example 13, 5-(2-Adenin-9-ylethyl)-amino-5-desoxy-1.4;3.6-dianhydro-L-iditol 2-nitrate], in series [1], the activation at 25 µg/mL worked out at 12.2%. Also, in series [1] (setting [4]), the percent change from initial value at 25 µg/mL came to 0%. Further, in series [1] (setting [5]), the inhibition at 25 µg/mL was -2.3%. Also, the 50% lethal dose (LD50) at 24 h in series [2] was above 200 mg/kg. For the same molecule, the “Frequency of death … of 200 mg/kg” value in the series on female NMRI-albino mice is given as 0/6.
On to `Nc1ncnc2c1ncn2CCCN[C@H]1CO[C@H]2[C@@H]1OC[C@@H]2O[N+](=O)[O-]` [Example 14, 5-(3-Adenin-9-ylpropyl)-amino-5-desoxy-1.4;3.6-dianhydro-L-iditol 2-nitrate], for which the activation at 25 µg/mL in series [1] amounted to 55.8%. Also, in series [1] (setting [4]), the percent change from initial value at 25 µg/mL worked out at 0%. Further, in series [1] (setting [5]), the inhibition at 25 µg/mL is -3.8%. Further, the results for the IC50 in series [3] (setting [6]) and in series [3] (setting [7]) were 1.4 µM and 43.9 µM, respectively.
Turning to `Nc1ncnc2c1ncn2CCCCN[C@H]1CO[C@H]2[C@@H]1OC[C@@H]2O[N+](=O)[O-]` [Example 15, 5-(4-Adenin-9-ylbutyl)-amino-5-desoxy-1.4;3.6-dianhydro-L-iditol 2-nitrate], the activation at 25 µg/mL in series [1] came to 47.1%. In addition, the inhibition at 25 µg/mL in series [1] (setting [4]) is 3.45%. Moreover, the inhibition at 25 µg/mL in series [1] (setting [5]) is -3.85%. Moreover, the median lethal dose (LD50) at 24 h in series [2] was below 50 mg/kg. In the series with female NMRI-albino mice, the “Frequency of death … of 50 mg/kg” value was 3/3, the “Frequency of death … of 100 mg/kg” value is reported as 3/3 and the “Frequency of death … of 200 mg/kg” value is reported as 3/3.
In the case of `Nc1ncnc2c1ncn2CCCCCN[C@H]1CO[C@H]2[C@@H]1OC[C@@H]2O[N+](=O)[O-]` [Example 16, 5-(5-Adenin-9-ylpentyl)-amino-5-desoxy-1.4;3.6-dianhydro-L-iditol 2-nitrate], the activation at 25 µg/mL in series [1] turned out to be 22.5%. The inhibition at 25 µg/mL in series [1] (setting [4]) stood at 6.8%. The inhibition at 25 µg/mL in series [1] (setting [5]) was -6.5%. Besides, the LD50 at 24 h in series [2] lay in the range of 100 to 200 mg/kg. Also, in the series with female NMRI-albino mice, the “Frequency of death … of 100 mg/kg” value was 0/10 and the “Frequency of death … of 200 mg/kg” value is 10/10.
Take `Nc1ncnc2c1ncn2CCCCCCN[C@H]1CO[C@H]2[C@@H]1OC[C@@H]2O[N+](=O)[O-]` [Example 17, 5-(6-Adenin-9-ylhexyl)-amino-5-desoxy-1.4;3.6-dianhydro-L-iditol 2-nitrate]: the activation at 25 µg/mL in series [1] came out at 60.6%. Moreover, in series [1] (setting [4]), the inhibition at 25 µg/mL was 3.6%. In series [1] (setting [5]), the inhibition at 25 µg/mL worked out at 11.5%. Besides, the LD50 at 24 h in series [2] was 50 to 100 mg/kg. Also, in the series with female NMRI-albino mice, the “Frequency of death … of 50 mg/kg” value is on record as 0/10, the “Frequency of death … of 100 mg/kg” value was 2/3 and the “Frequency of death … of 200 mg/kg” value is 3/3.

The values are drawn from patent publication US4542137A, “Alkylaminodesoxy-1.4;3.6-dianhydrohexitol nitrates substituted by purine bases and pharmaceutical compositions” (priority 1980, dated 1985).
